pIC50, pKi: −log10 of the molar value.

The target in assay [1] is T1, SYK kinase (Homo sapiens, UniProt P43405).
T1 construct: purchased Invitrogen, Carlsbad
In words: SYK assay (OMNIA Kinase Assay, Invitrogen). It is filed as biochemical. The following applies: apparent Ki calculated from the IC50 using the Cheng-Prusoff equation; 1 mM ATP, 10 μM Peptide Substrate; read-out: SYK Activities: Ki. In short, it runs like this: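 Continuous SOX-fluorescence (Omnia) readout of Tyr 7 peptide (10 μM) phosphorylation with 1 mM ATP and 0.2 mM DTT at 30° C, started by SYK addition. Fluorescence (λex 360/λem 485 nm) was read every 30 s for 30 min. IC50 from velocity vs concentration; apparent Ki via Cheng-Prusoff.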

Assay [2] has as its target LRRK2 (Homo sapiens, UniProt Q5S007). In words: LRRK2 assay (LanthaScreen Eu Kinase Binding Assay). The conditions noted are these: 5 nM LRRK2, 10 nM tracer 236, RT 1 h; read-out: LRRK2 Activites: IC50. An outline of the steps:
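Kinase binding was detected by europium anti-tag antibody FRET with a competing tracer, so inhibitor binding lowers the FRET signal. IC50 came from a variable-slope sigmoidal fit of emission ratio against inhibitor concentration.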
A general note: Time-resolved FRET reads energy transfer from a long-lived donor to a nearby acceptor.

In assay [3] the target is MYLK (Homo sapiens, UniProt Q15746). The experiment in a line: MYLK assay (LanthaScreen Eu Kinase Binding Assay). The following applies: 5 nM MYLK, 30 nM tracer 236, RT 1 h; read-out: MYLK Activites: IC50. An outline of the steps: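 TR-FRET tracer-displacement binding: 5 nM MYLK with 2 nM Eu-anti-GST antibody and 30 nM tracer 236 in kinase buffer A, 1 h at RT. The 665/615 nm emission ratio was plotted against inhibitor concentration; IC50 from variable-slope sigmoidal fit.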
Sequence of MYLK (Q15746 whole entry): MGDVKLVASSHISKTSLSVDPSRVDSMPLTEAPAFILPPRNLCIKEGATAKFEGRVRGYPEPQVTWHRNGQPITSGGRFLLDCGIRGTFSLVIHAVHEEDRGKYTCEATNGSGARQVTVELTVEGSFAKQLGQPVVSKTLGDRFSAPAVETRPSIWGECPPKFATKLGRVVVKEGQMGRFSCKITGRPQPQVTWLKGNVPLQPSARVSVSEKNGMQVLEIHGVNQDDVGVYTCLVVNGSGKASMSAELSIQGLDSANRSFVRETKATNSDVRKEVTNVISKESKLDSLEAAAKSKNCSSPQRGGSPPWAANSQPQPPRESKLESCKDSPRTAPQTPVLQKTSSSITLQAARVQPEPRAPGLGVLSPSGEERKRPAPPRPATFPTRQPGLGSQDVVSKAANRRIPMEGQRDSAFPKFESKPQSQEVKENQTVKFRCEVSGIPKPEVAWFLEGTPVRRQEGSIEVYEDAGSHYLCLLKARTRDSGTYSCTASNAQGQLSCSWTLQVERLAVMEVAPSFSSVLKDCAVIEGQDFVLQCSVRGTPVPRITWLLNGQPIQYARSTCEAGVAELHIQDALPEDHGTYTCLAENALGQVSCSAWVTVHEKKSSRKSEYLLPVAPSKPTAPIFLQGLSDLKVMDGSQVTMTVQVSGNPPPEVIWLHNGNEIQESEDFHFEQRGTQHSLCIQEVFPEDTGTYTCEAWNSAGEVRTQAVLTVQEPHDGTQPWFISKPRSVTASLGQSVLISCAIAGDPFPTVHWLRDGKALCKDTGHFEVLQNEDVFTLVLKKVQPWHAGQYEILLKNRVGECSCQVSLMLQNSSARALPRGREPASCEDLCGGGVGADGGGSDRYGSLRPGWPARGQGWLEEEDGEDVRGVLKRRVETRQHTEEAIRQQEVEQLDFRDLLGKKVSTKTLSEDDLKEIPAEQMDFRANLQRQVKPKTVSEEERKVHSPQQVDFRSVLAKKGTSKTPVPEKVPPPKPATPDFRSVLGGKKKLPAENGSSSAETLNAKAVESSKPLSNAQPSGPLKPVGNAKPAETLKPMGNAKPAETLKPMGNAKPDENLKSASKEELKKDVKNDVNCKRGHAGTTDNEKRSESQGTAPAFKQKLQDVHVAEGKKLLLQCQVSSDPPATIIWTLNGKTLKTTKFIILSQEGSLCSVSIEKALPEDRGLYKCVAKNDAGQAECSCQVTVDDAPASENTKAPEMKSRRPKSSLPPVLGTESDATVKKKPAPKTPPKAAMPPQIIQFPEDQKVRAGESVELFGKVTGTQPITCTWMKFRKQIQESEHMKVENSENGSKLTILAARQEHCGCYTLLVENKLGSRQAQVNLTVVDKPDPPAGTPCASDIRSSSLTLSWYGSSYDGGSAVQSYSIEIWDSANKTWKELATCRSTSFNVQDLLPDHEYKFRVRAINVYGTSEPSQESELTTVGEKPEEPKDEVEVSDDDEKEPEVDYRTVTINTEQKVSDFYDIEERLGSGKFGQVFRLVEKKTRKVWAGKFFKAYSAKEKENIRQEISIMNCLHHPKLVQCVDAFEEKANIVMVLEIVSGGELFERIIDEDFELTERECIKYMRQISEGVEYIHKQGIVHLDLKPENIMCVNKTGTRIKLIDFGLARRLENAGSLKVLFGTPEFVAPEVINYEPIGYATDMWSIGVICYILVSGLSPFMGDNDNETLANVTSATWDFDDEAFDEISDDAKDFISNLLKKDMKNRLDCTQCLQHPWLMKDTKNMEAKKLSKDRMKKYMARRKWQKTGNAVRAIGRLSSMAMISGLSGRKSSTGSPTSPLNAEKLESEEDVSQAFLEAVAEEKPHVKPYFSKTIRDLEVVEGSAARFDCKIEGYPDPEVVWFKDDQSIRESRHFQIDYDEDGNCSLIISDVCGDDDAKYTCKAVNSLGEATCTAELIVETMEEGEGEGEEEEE

Sequence of LRRK2 (Q5S007 970-2527 limits assumed): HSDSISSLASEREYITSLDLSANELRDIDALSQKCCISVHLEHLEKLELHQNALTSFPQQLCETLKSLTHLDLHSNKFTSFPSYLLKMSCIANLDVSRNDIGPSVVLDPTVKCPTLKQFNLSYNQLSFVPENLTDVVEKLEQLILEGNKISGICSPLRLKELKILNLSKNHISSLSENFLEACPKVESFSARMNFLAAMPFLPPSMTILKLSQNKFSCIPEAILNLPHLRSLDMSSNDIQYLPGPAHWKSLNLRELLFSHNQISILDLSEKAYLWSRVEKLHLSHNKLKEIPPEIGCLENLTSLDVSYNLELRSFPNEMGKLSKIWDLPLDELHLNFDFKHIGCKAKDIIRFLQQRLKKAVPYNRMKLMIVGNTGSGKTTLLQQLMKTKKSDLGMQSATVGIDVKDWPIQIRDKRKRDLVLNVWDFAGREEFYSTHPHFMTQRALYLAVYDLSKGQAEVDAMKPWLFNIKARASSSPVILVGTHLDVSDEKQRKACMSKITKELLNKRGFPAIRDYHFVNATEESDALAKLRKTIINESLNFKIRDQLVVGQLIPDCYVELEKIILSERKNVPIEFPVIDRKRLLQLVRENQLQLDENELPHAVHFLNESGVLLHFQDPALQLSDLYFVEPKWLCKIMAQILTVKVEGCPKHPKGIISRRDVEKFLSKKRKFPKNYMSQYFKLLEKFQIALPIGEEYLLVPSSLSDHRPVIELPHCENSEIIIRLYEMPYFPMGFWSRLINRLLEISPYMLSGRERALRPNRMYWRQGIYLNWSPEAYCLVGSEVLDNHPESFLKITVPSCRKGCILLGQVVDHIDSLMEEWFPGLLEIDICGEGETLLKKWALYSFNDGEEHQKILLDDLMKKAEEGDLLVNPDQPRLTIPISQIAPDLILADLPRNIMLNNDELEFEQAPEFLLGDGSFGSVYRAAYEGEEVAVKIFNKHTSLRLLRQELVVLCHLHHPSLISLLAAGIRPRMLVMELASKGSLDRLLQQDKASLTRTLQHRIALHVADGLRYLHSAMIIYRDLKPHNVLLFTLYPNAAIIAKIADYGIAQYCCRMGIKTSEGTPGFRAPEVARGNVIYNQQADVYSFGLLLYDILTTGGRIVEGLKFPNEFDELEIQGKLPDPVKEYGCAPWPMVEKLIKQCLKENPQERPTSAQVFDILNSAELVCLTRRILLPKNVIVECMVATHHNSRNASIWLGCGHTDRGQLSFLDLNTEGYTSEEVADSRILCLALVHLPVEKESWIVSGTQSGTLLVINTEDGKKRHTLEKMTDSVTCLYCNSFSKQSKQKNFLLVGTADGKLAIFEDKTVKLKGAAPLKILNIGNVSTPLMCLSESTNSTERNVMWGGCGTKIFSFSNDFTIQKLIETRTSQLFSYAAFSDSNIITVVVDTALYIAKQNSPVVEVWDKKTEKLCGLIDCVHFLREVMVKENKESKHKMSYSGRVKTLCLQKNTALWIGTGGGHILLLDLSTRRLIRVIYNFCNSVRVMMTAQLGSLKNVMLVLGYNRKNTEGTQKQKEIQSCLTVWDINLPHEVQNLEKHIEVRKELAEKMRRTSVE

Usually pKi stands for the negative decadic logarithm of the Ki, by convention in mol/L. In general, pIC50 refers to −log10 of the IC50, conventionally taken in molar units. Take `COc1ccc2nc(Nc3ccc(CC(N)=O)cc3)c3[nH]ncc3c2c1` [Example #112, 2-[4-(8-Methoxy-3H-pyrazolo[3,4-c]quinolin-4-ylamino)-phenyl]-acetamide]: in assay [1], the pKi was 7.00 to 8.00. In addition, the pIC50 in assay [2] is 6.00 to 7.00; in assay [3] it was above 5.30.
Taken in the same sequence, the figures for `COc1cc(OC)c2nc(Nc3ccc(CN4CCN(C)CC4)cc3)c3n[nH]cc3c2c1` [Example #282, (6,8-Dimethoxy-2H-pyrazolo[3,4-c]quinolin-4-yl)-[4-(4-methyl-piperazin-1-ylmethyl)-phenyl]-amine] were 7.00 to 8.00, 6.00 to 7.00 and above 5.30.
The matching figures for `COc1ccc2nc(Nc3ccc(C(=O)N(C)CCN(C)C)cc3)c3n[nH]cc3c2c1` [Example #300, N-(2-(dimethylamino)ethyl)-4-((8-methoxy-2H-pyrazolo[3,4-c]quinolin-4-yl)amino)-N-methylbenzamide]: 7.00 to 8.00, 7.00 to 8.00 and above 5.30.
The matching figures for `COc1cccc2c1nc(Nc1ccc(N3CCOCC3)c(F)c1)c1n[nH]cc12` [Example #246, (3-Fluoro-4-morpholin-4-yl-phenyl)-(6-methoxy-2H-pyrazolo[3,4-c]quinolin-4-yl)-amine]: above 8.00, 6.00 to 7.00 and above 5.30.
For the compound `COc1cccc2c1nc(Nc1ccc3cn[nH]c3c1)c1n[nH]cc12` [Example #171, (1H-Indazol-6-yl)-(6-methoxy-2H-pyrazolo[3,4-c]quinolin-4-yl)-amine], the pKi in assay [1] is 7.00 to 8.00. Moreover, the negative-log IC50 (pIC50) in assay [2] is 6.00 to 7.00; in assay [3], above 5.30.
Taken in the same sequence, the figures for `COc1ccc2nc(Nc3ccc(CN4CCOCC4)cc3)c3n[nH]cc3c2c1` [Example #237, (8-Methoxy-2H-pyrazolo[3,4-c]quinolin-4-yl)-(4-morpholin-4-ylmethyl-phenyl)-amine] were 7.00 to 8.00, 7.00 to 8.00 and above 5.30.

These data come from patent US9499535B2, “Kinase inhibitors” (ORIGENIS GMBH, priority 2011, dated 2016).
